Literature values in patent US10206949B2, “Composition that relieves heartburn, GERD and hangovers” (priority 2015, dated 2019).

[1] = patients with acute renal or cardiac failure

CNC(=C[N+](=O)[O-])NCCSCc1ccc(CN(C)C)o1 [ranitidine, N-(2-[(5-[(dimethylamino)methyl]furan-2-yl)methylthio]ethyl)-N′-methyl-2-nitroethene-1,1-diamine]
false positives for methamphetamine on drug tests (in vivo): known to give false positives
fungal sepsis (patients on ranitidine): observed in some patients
mucosal perfusion [1]: decrease mucosal perfusion
risk of death [1]: increases their risk of death
